Data taken from patent US9938322B2, “β-hairpin peptidomimetics” (priority 2013, dated 2018).
Where a SMILES comes first, the peptide text is derived from it. [ ]: non-standard residue; d: D form. Phe(4-CF3) = N[C@@H](Cc1ccc(C(F)(F)F)cc1)C(=O)O; Tyr(3-F) = N[C@@H](Cc1ccc(O)c(F)c1)C(=O)O; Chg = N[C@H](C(=O)O)C1CCCCC1; Phg = N[C@H](C(=O)O)c1ccccc1; Tle = CC(C)(C)[C@H](N)C(=O)O; dDab = NCC[C@@H](N)C(=O)O; Orn = NCCC[C@H](N)C(=O)O; Dab = NCC[C@H](N)C(=O)O; Nva = CCC[C@H](N)C(=O)O; Dap = NC[C@H](N)C(=O)O

Test system: human red blood cells (hRBC)
Test: Hemolysis of human red blood cells
Type: cell-based
Conditions: red cells of human, 1 h, 100
How it was run: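 Washed fresh human erythrocytes (20% v/v, about 0.9×10^9 cells/ml final) incubated with peptide at 100 μg/ml for 1 h at 37° C with shaking. Supernatant OD540 read; hemolysis expressed relative to 2.5% Triton X-100 (100%) and PBS with 0.001% acetic acid (0%).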

Compound | Hemolysis at 100 μg/ml [%]
CC(C)C[C@@H]1NC(=O)[C@@H]2CCCN2C(=O)[C@H]2CCCN2C(=O)[C@H](CO)NC(=O)[C@H](C)NC(=O)[C@H](C(C)(C)C)NC(=O)[C@H](CCCNC(=N)N)NC(=O)[C@H](Cc2c[nH]c3ccccc23)NC(=O)[C@H](CCN)NC(=O)[C@@H](CCN)NC(=O)[C@H](CCCN)NC(=O)[C@H](CCN)NC(=O)[C@H](Cc2ccc(O)cc2)NC(=O)[C@H](CO)NC1=O [compound 97] (cyclo(LSY[Dab][Orn][dDab][Dab]WR[Tle]AS[dP]P)) | 1
CC(C)C[C@@H]1NC(=O)[C@@H]2CCCN2C(=O)[C@H]2CCCN2C(=O)[C@H](CO)NC(=O)[C@H](C)NC(=O)[C@H](C(C)(C)C)NC(=O)[C@H](CCN)NC(=O)[C@H](Cc2c[nH]c3ccccc23)NC(=O)[C@H](CCN)NC(=O)[C@@H](CCN)NC(=O)[C@H](CCCNC(=N)N)NC(=O)[C@H](CCN)NC(=O)[C@H](Cc2ccc(O)cc2)NC(=O)[C@H](CO)NC1=O [compound 98] (cyclo(LSY[Dab]R[dDab][Dab]W[Dab][Tle]AS[dP]P)) | 1
CC(C)C[C@@H]1NC(=O)[C@@H]2CCCN2C(=O)[C@H]2CCCN2C(=O)[C@H](CO)NC(=O)[C@H](C)NC(=O)[C@H](C(C)(C)C)NC(=O)[C@H](CCN)NC(=O)[C@H](Cc2c[nH]c3ccccc23)NC(=O)[C@H](CCCN)NC(=O)[C@@H](CCN)NC(=O)[C@H](CCCN)NC(=O)[C@H](CCN)NC(=O)[C@H](Cc2ccc(O)cc2)NC(=O)[C@H](CO)NC1=O [compound 99] (cyclo(LSY[Dab][Orn][dDab][Orn]W[Dab][Tle]AS[dP]P)) | 0
CC(C)C[C@@H]1NC(=O)[C@@H]2CCCN2C(=O)[C@H]2CCCN2C(=O)[C@H](CO)NC(=O)[C@H](C)NC(=O)[C@H](C(C)(C)C)NC(=O)[C@H](CCCCN)NC(=O)[C@H](Cc2c[nH]c3ccccc23)NC(=O)[C@H](CCN)NC(=O)[C@@H](CCN)NC(=O)[C@H](CCCN)NC(=O)[C@H](CCN)NC(=O)[C@H](Cc2ccc(O)cc2)NC(=O)[C@H](CO)NC1=O [compound 100] (cyclo(LSY[Dab][Orn][dDab][Dab]WK[Tle]AS[dP]P)) | 1
CC(C)C[C@@H]1NC(=O)[C@@H]2CCCN2C(=O)[C@H]2CCCN2C(=O)[C@H](CO)NC(=O)[C@H](C)NC(=O)[C@H](C(C)(C)C)NC(=O)[C@H](CN)NC(=O)[C@H](Cc2c[nH]c3ccccc23)NC(=O)[C@H](CCN)NC(=O)[C@@H](CCN)NC(=O)[C@H](CCCN)NC(=O)[C@H](CCN)NC(=O)[C@H](Cc2ccc(O)cc2)NC(=O)[C@H](CO)NC1=O [compound 101] (cyclo(LSY[Dab][Orn][dDab][Dab]W[Dap][Tle]AS[dP]P)) | 1
CC(C)C[C@@H]1NC(=O)[C@@H]2CCCN2C(=O)[C@H]2CCCN2C(=O)[C@H](CO)NC(=O)[C@H](C)NC(=O)[C@H](C(C)(C)C)NC(=O)[C@H](CCN)NC(=O)[C@H](Cc2c[nH]c3ccccc23)NC(=O)[C@H](CCCNC(=N)N)NC(=O)[C@@H](CCN)NC(=O)[C@H](CCCN)NC(=O)[C@H](CCN)NC(=O)[C@H](Cc2ccc(O)cc2)NC(=O)[C@H](CO)NC1=O [compound 102] (cyclo(LSY[Dab][Orn][dDab]RW[Dab][Tle]AS[dP]P)) | 0
CCC[C@@H]1NC(=O)[C@@H]2CCCN2C(=O)[C@H]2CCCN2C(=O)[C@H](CO)NC(=O)[C@H](C)NC(=O)[C@H](C(C)(C)C)NC(=O)[C@H](CCN)NC(=O)[C@H](Cc2c[nH]c3ccccc23)NC(=O)[C@H](CCN)NC(=O)[C@@H](CCN)NC(=O)[C@H](CCCN)NC(=O)[C@H](CCN)NC(=O)[C@H](Cc2ccc(O)c(F)c2)NC(=O)[C@H](CO)NC1=O [compound 105] (cyclo([Nva]S[Tyr(3-F)][Dab][Orn][dDab][Dab]W[Dab][Tle]AS[dP]P)) | 1
CCC[C@@H]1NC(=O)[C@@H]2CCCN2C(=O)[C@H]2CCCN2C(=O)[C@H](CO)NC(=O)[C@H](C)NC(=O)[C@H](C(C)(C)C)NC(=O)[C@H](CCN)NC(=O)[C@H](Cc2c[nH]c3ccccc23)NC(=O)[C@H](CCN)NC(=O)[C@@H](CCN)NC(=O)[C@H](CCCN)NC(=O)[C@H](CCN)NC(=O)[C@H](Cc2ccc(C(F)(F)F)cc2)NC(=O)[C@H](CO)NC1=O [compound 106] (cyclo([Nva]S[Phe(4-CF3)][Dab][Orn][dDab][Dab]W[Dab][Tle]AS[dP]P)) | 2
CC(C)C[C@@H]1NC(=O)[C@@H]2CCCN2C(=O)[C@H]2CCCN2C(=O)[C@H](CO)NC(=O)[C@H](C)NC(=O)[C@H](c2ccccc2)NC(=O)[C@H](CCN)NC(=O)[C@H](Cc2c[nH]c3ccccc23)NC(=O)[C@H](CCN)NC(=O)[C@@H](CCN)NC(=O)[C@H](CCCN)NC(=O)[C@H](CCN)NC(=O)[C@H](Cc2ccc(O)cc2)NC(=O)[C@H](CO)NC1=O [compound 107] (cyclo(LSY[Dab][Orn][dDab][Dab]W[Dab][Phg]AS[dP]P)) | 2
CC(C)C[C@@H]1NC(=O)[C@@H]2CCCN2C(=O)[C@H]2CCCN2C(=O)[C@H](CO)NC(=O)[C@H](C)NC(=O)[C@H](Cc2c[nH]c3ccccc23)NC(=O)[C@H](CCN)NC(=O)[C@H](Cc2c[nH]c3ccccc23)NC(=O)[C@H](CCN)NC(=O)[C@@H](CCN)NC(=O)[C@H](CCCCN)NC(=O)[C@H](CCN)NC(=O)[C@H](Cc2ccc(O)cc2)NC(=O)[C@H](CO)NC1=O [compound 108] (cyclo(LSY[Dab]K[dDab][Dab]W[Dab]WAS[dP]P)) | 1
CC(C)C[C@@H]1NC(=O)[C@@H]2CCCN2C(=O)[C@H]2CCCN2C(=O)[C@H](CO)NC(=O)[C@H](C)NC(=O)[C@H](Cc2c[nH]c3ccccc23)NC(=O)[C@H](CCN)NC(=O)[C@H](Cc2c[nH]c3ccccc23)NC(=O)[C@H](CCN)NC(=O)[C@@H](CCN)NC(=O)[C@H](CCCN)NC(=O)[C@H](CCN)NC(=O)[C@H](Cc2c[nH]c3ccccc23)NC(=O)[C@H](CO)NC1=O [compound 109] (cyclo(LSW[Dab][Orn][dDab][Dab]W[Dab]WAS[dP]P)) | 2
CC[C@H](C)[C@@H]1NC(=O)[C@@H]2CCCN2C(=O)[C@H]2CCCN2C(=O)[C@H](CO)NC(=O)[C@H](C)NC(=O)[C@H](Cc2c[nH]c3ccccc23)NC(=O)[C@H](CCN)NC(=O)[C@H](Cc2c[nH]c3ccccc23)NC(=O)[C@H](CCN)NC(=O)[C@@H](CCN)NC(=O)[C@H](CCCN)NC(=O)[C@H](CCN)NC(=O)[C@H](Cc2ccc(O)cc2)NC(=O)[C@H](CO)NC1=O [compound 110] (cyclo(ISY[Dab][Orn][dDab][Dab]W[Dab]WAS[dP]P)) | 1
CC(C)C[C@@H]1NC(=O)[C@@H]2CCCN2C(=O)[C@H]2CCCN2C(=O)[C@H](CO)NC(=O)[C@H](CO)NC(=O)[C@H](Cc2c[nH]c3ccccc23)NC(=O)[C@H](CCN)NC(=O)[C@H](Cc2c[nH]c3ccccc23)NC(=O)[C@H](CCN)NC(=O)[C@@H](CCN)NC(=O)[C@H](CCCN)NC(=O)[C@H](CCN)NC(=O)[C@H](Cc2ccc(O)cc2)NC(=O)[C@H](CO)NC1=O [compound 111] (cyclo(LSY[Dab][Orn][dDab][Dab]W[Dab]WSS[dP]P)) | 1
CC(C)C[C@@H]1NC(=O)[C@@H]2CCCN2C(=O)[C@H]2CCCN2C(=O)[C@H](CO)NC(=O)[C@H](Cc2ccc(O)cc2)NC(=O)[C@H](C(C)(C)C)NC(=O)[C@H](CCN)NC(=O)[C@H](Cc2c[nH]c3ccccc23)NC(=O)[C@H](CCN)NC(=O)[C@@H](CCN)NC(=O)[C@H](CCCN)NC(=O)[C@H](CCN)NC(=O)[C@H](Cc2ccc(O)cc2)NC(=O)[C@H](CC(=O)O)NC1=O [compound 112] (cyclo(LDY[Dab][Orn][dDab][Dab]W[Dab][Tle]YS[dP]P)) | 0
CC(C)C[C@@H]1NC(=O)[C@@H]2CCCN2C(=O)[C@H]2CCCN2C(=O)[C@H](CO)NC(=O)[C@H](Cc2ccc(O)cc2)NC(=O)[C@H](C(C)(C)C)NC(=O)[C@H](CCN)NC(=O)[C@H](Cc2c[nH]c3ccccc23)NC(=O)[C@H](CCN)NC(=O)[C@@H](CCN)NC(=O)[C@H](CCCN)NC(=O)[C@H](CCN)NC(=O)[C@H](Cc2ccc(O)cc2)NC(=O)[C@H]([C@@H](C)O)NC1=O [compound 113] (cyclo(LTY[Dab][Orn][dDab][Dab]W[Dab][Tle]YS[dP]P)) | 0
CC(C)C[C@@H]1NC(=O)[C@@H]2CCCN2C(=O)[C@H]2CCCN2C(=O)[C@H](CO)NC(=O)[C@H](CCN)NC(=O)[C@H](C(C)(C)C)NC(=O)[C@H](CCN)NC(=O)[C@H](Cc2c[nH]c3ccccc23)NC(=O)[C@H](CCN)NC(=O)[C@@H](CCN)NC(=O)[C@H](CCCN)NC(=O)[C@H](CCN)NC(=O)[C@H](Cc2ccc(O)cc2)NC(=O)[C@H](CC(=O)O)NC1=O [compound 114] (cyclo(LDY[Dab][Orn][dDab][Dab]W[Dab][Tle][Dab]S[dP]P)) | 0.5
CC(C)C[C@@H]1NC(=O)[C@@H]2CCCN2C(=O)[C@H]2CCCN2C(=O)[C@H](CO)NC(=O)[C@H](CCN)NC(=O)[C@H](C(C)(C)C)NC(=O)[C@H](CCN)NC(=O)[C@H](Cc2c[nH]c3ccccc23)NC(=O)[C@H](CCN)NC(=O)[C@@H](CCN)NC(=O)[C@H](CCCN)NC(=O)[C@H](CCN)NC(=O)[C@H](Cc2ccc(O)cc2)NC(=O)[C@H]([C@@H](C)O)NC1=O [compound 115] (cyclo(LTY[Dab][Orn][dDab][Dab]W[Dab][Tle][Dab]S[dP]P)) | 0
CC(C)C[C@@H]1NC(=O)[C@@H]2CCCN2C(=O)[C@H]2CCCN2C(=O)[C@H](CO)NC(=O)[C@H](CO)NC(=O)[C@H](C2CCCCC2)NC(=O)[C@H](CCN)NC(=O)[C@H](Cc2c[nH]c3ccccc23)NC(=O)[C@H](CCN)NC(=O)[C@@H](CCN)NC(=O)[C@H](CCCN)NC(=O)[C@H](CCN)NC(=O)[C@H](Cc2ccc(O)cc2)NC(=O)[C@H](CO)NC1=O [compound 116] (cyclo(LSY[Dab][Orn][dDab][Dab]W[Dab][Chg]SS[dP]P)) | 3
CC(C)C[C@@H]1NC(=O)[C@@H]2CCCN2C(=O)[C@H]2CCCN2C(=O)[C@H](CO)NC(=O)[C@H](CO)NC(=O)[C@H](C(C)(C)C)NC(=O)[C@H](CCN)NC(=O)[C@H](Cc2c[nH]c3ccccc23)NC(=O)[C@H](CCN)NC(=O)[C@@H](CCN)NC(=O)[C@H](CCCN)NC(=O)[C@H](CCN)NC(=O)[C@H](Cc2ccc(O)cc2)NC(=O)[C@H](CO)NC1=O [compound 117] (cyclo(LSY[Dab][Orn][dDab][Dab]W[Dab][Tle]SS[dP]P)) | 3
